{
  "source": "paper PMC7827417",
  "about": "“Steroid Glycosides Hyrcanoside and Deglucohyrcanoside: On Isolation, Structural Identification, and Anticancer Activity” (Foods, 2021)",
  "key": {"CCRF-CEM": {"system": "CCRF-CEM", "assay": "MTS cytotoxic assay, CCRF-CEM", "format": "cell-based", "details": "Homo sapiens, 72 h", "source_text": "(§1) If not indicated otherwise, the cell lines were purchased from the American Type Culture Collection (ATCC). […] K562 is the erythroid-myeloid precursor cell line derived from chronic myeloid leukemia carrying the BCR-ABL hybrid gene. A549, MCF-7, PC-3, 5637, U-2 OS, and MiaPaCa-2 are cells derived from lung, breast, prostate, bladder carcinoma, osteosarcoma, and pancreatic adenocarcinoma, respectively. HEK 293T are transformed human embryonic kidney cells, and L929 (Sigma, St. Louis, MS, USA) are transformed mouse fibroblasts. HCT116, cells from colorectal carcinoma, and their p53 gene knock-out variant (HCT116p53-/-) were purchased from Horizon Discovery. This cell line is a model of human tumors bearing p53 loss-of-function mutations or biallelic deletion of the p53 gene, frequently associated with poor prognosis. The MRC-5 and BJ cells were used as noncancerous cells; more specifically, they are human fibroblasts from the lungs and foreskin, respectively. According to the supplier’s recommendations, all cells were cultured at 37 °C in a 5% CO2 atmosphere and 100% humidity. The culture media used were: DMEM, RPMI 1640, and MEM (according to a cell line); all were supplemented with 5 g L^−1 glucose, 10% fetal calf serum, 2 mM glutamine, 100 U mL^−1 penicillin, 100 µg mL^−1 streptomycin, and NaHCO3. Cells were passaged every two or three days using 0.25% trypsin plus 0.01% EDTA (ethylenediamine tetraacetic acid) in phosphate-buffered saline.\n(§2) To evaluate compound cytotoxicity, cells were seeded in 384-well microtiter plates in a volume of […]. The next day, aliquots of the tested derivatives were transferred with Echo550 acoustic liquid handler (Labcyte) to obtain dose response curves with dilution factor 4. The experiments were performed in technical duplicates and three or more biological replicates. After 72 h of incubation in a humidified incubator, […] of the MTS/PMS stock solution were pipetted into each well. After another 1–4 h of incubation, the absorbance at 490 nm was measured using an EnVision Multilabel Plate Reader (PerkinElmer)."}, "A549": {"system": "A549", "assay": "MTS cytotoxic assay, A549", "format": "cell-based", "details": "Homo sapiens, A549, 72 h", "source_text": "as §1, §2"}, "HCT116": {"system": "HCT116", "assay": "MTS cytotoxic assay, HCT116", "format": "cell-based", "details": "Homo sapiens, HCT-116, 72 h", "source_text": "as §1, §2"}, "MiaPaCa-2": {"system": "MiaPaCa-2", "assay": "MTS cytotoxic assay, MiaPaCa-2", "format": "cell-based", "details": "Homo sapiens, MIA PaCa-2, 72 h", "source_text": "as §1, §2"}, "MCF-7": {"system": "MCF-7", "assay": "MTS cytotoxic assay, MCF-7", "format": "cell-based", "details": "Homo sapiens, MCF7, 72 h", "source_text": "as §1, §2"}, "U-2 OS": {"system": "U-2 OS", "assay": "MTS cytotoxic assay, U-2 OS", "format": "cell-based", "details": "Homo sapiens, U2OS, 72 h", "source_text": "as §1, §2"}, "5637": {"system": "5637", "assay": "MTS cytotoxic assay, 5637", "format": "cell-based", "details": "Homo sapiens, 72 h", "source_text": "as §1, §2"}, "PC-3": {"system": "PC-3", "assay": "MTS cytotoxic assay, PC-3", "format": "cell-based", "details": "Homo sapiens, PC-3, 72 h", "source_text": "as §1, §2"}, "HEK 293T": {"system": "HEK 293T", "assay": "MTS cytotoxic assay, HEK 293T", "format": "cell-based", "details": "Homo sapiens, HEK-293T, 72 h", "source_text": "as §1, §2"}, "MRC-5": {"system": "MRC-5", "assay": "MTS cytotoxic assay, MRC-5", "format": "cell-based", "details": "Homo sapiens, MRC5, 72 h", "source_text": "as §1, §2"}, "L929": {"system": "L929", "assay": "MTS cytotoxic assay, L929", "format": "cell-based, mouse", "details": "Mus musculus, L929, 72 h", "source_text": "as §1, §2"}, "CCRF-CEM cells [1]": {"system": "CCRF-CEM cells", "assay": "Cell cycle arrest and cell death analysis by flow cytometry (propidium iodide, pH3Ser10)", "format": "cell-based, human", "details": "% of positive cells", "procedure": "Together with the CG-treated cells, a vehicle-treated sample was harvested at the same time point. After 24 h, the cells were washed with cold phosphate-buffered saline, fixed dropwise in 70% ethanol, and stored overnight at −20 °C. The cells were then washed with hypotonic citrate buffer, treated with RNAse (50 µg mL^−1), and stained with propidium iodide. Flow cytometry using a 488 nm laser (FACS-Calibur, Becton Dickinson, NJ, USA) was used for measurement. The cell cycle was analyzed by the ModFitLT program (Verity), and apoptosis was measured in a logarithmic model expressing the percentage of particles with a lower propidium content than cells in the G0/G1 phase (<G1) of the cell cycle in the CellQuest program (Becton Dickinson). Half of the sample was used to label cells with pH3^Ser10-FITC antibody (Exbio) for subsequent flow cytometry analysis of mitotic cells."}, "CCRF-CEM cells [2]": {"system": "CCRF-CEM cells", "assay": "BrDU incorporation analysis (DNA synthesis)", "format": "cell-based, human", "details": "% of positive cells", "procedure": "The cells were cultured in the same way as the cell cycle analysis method. Just before harvesting, 5-bromo-2′-deoxyuridine (BrDU) of 10 µM concentration was added to the cells for pulse-labeling for 30 min. Then, the cells were fixed with −20 °C cold 70% ethanol and stored in a freezer for 16 h. Before antibody staining, the samples were incubated on ice for 30 min, washed once with phosphate-buffered saline (PBS), and re-suspended in 2 M of HCl for 30 min at room temperature to hydrolyze their DNA. After neutralization with 0.1 M of Na2B4O7 (borax) solution, the cells were washed with PBS containing 0.5% Tween-20 and 1% BSA. This was followed by staining with the primary anti-BrDU antibody (Exbio) for 30 min at room temperature. Then, the cells were washed with PBS and stained with a secondary anti-mouse antibody conjugated to fluorescein isothiocyanate (Merck-Sigma, St. Louis, MS, USA) at room temperature in the dark. After another washing with PBS and incubation with propidium iodide (0.1 mg·mL^−1) and RNAse A (0.5 mg·mL^−1) for 1 h at room temperature in the dark, the cells were analyzed by flow cytometry using a 488 nm laser (FACSCalibur, Becton Dickinson, Franklin Lakes, NJ, USA)."}, "CCRF-CEM cells [3]": {"system": "CCRF-CEM cells", "assay": "BrU incorporation analysis (RNA synthesis)", "format": "cell-based, human", "details": "% of positive cells", "procedure": "The cells were cultured and processed as described above. Before harvesting, the cells were pulse-labeled with 1 mM of 5-bromouridine (BrU) for 30 min. The cells were then fixed in 1% buffered paraformaldehyde with 0.05% NP-40 at room temperature for 15 min, and then stored at 4 °C overnight. Before measurement, they were washed with 1% glycine in PBS, washed again with PBS, and stained with primary anti-BrdU antibody cross-reactive to BrU (Exbio) for 30 min at room temperature in the dark. From this point on, the experiment was performed exactly as in the method described above."}},
  "data": [
    {"smiles": "C[C@H]1O[C@@H](O[C@H]2[C@@H](O)C[C@H](O[C@H]3[C@@H](O)C[C@H](O[C@H]4CC[C@@]5(C)[C@H](CC[C@@H]6[C@@H]5CC[C@]5(C)[C@@H](C7=CC(=O)OC7)CC[C@]65O)C4)O[C@@H]3C)O[C@@H]2C)C[C@H](O)[C@@H]1O", "note": "[Dg, digitoxin]", "values": [
      {"measurement": "IC50", "setting": "CCRF-CEM", "result": "20 ± 3.5", "unit": "nM"},
      {"measurement": "IC50", "setting": "A549", "result": "19 ± 2", "unit": "nM"},
      {"measurement": "IC50", "setting": "HCT116", "result": "20 ± 1.5", "unit": "nM"},
      {"measurement": "IC50", "setting": "MiaPaCa-2", "result": "79 ± 2.8", "unit": "nM"},
      {"measurement": "IC50", "setting": "MCF-7", "result": "78 ± 1.1", "unit": "nM"},
      {"measurement": "IC50", "setting": "U-2 OS", "result": "45 ± 2.1", "unit": "nM"},
      {"measurement": "IC50", "setting": "5637", "result": "58 ± 1.6", "unit": "nM"},
      {"measurement": "IC50", "setting": "PC-3", "result": "69 ± 2.2", "unit": "nM"},
      {"measurement": "IC50", "setting": "HEK 293T", "result": "69 ± 2.1", "unit": "nM"},
      {"measurement": "IC50", "setting": "MRC-5", "result": "78 ± 1.9", "unit": "nM"},
      {"measurement": "IC50", "setting": "L929", "result": "> 10000", "unit": "nM"},
      {"measurement": "< G1 (apoptotic cells)", "setting": "CCRF-CEM cells [1]; 1 × IC50, 24 h", "result": 7.56, "unit": "%"},
      {"measurement": "G0/G1", "setting": "CCRF-CEM cells [1]; 1 × IC50, 24 h", "result": 33.21, "unit": "%"},
      {"measurement": "G2/M", "setting": "CCRF-CEM cells [1]; 1 × IC50, 24 h", "result": 30.51, "unit": "%"},
      {"measurement": "M (Phospho-Histone3 (Ser10))", "setting": "CCRF-CEM cells [1]; 1 × IC50, 24 h", "result": 1.97, "unit": "%"},
      {"measurement": "S", "setting": "CCRF-CEM cells [1]; 1 × IC50, 24 h", "result": 36.28, "unit": "%"},
      {"measurement": "< G1 (apoptotic cells)", "setting": "CCRF-CEM cells [1]; 5 × IC50, 24 h", "result": 10.35, "unit": "%"},
      {"measurement": "G0/G1", "setting": "CCRF-CEM cells [1]; 5 × IC50, 24 h", "result": 33.71, "unit": "%"},
      {"measurement": "G2/M", "setting": "CCRF-CEM cells [1]; 5 × IC50, 24 h", "result": 44.03, "unit": "%"},
      {"measurement": "M (Phospho-Histone3 (Ser10))", "setting": "CCRF-CEM cells [1]; 5 × IC50, 24 h", "result": 1.28, "unit": "%"},
      {"measurement": "S", "setting": "CCRF-CEM cells [1]; 5 × IC50, 24 h", "result": 22.26, "unit": "%"},
      {"measurement": "BrDU", "setting": "CCRF-CEM cells [2]; 1 × IC50, 24 h", "result": 35.91, "unit": "%"},
      {"measurement": "BrDU", "setting": "CCRF-CEM cells [2]; 5 × IC50, 24 h", "result": 23.52, "unit": "%"},
      {"measurement": "BrU", "setting": "CCRF-CEM cells [3]; 1 × IC50, 24 h", "result": 42.99, "unit": "%"},
      {"measurement": "BrU", "setting": "CCRF-CEM cells [3]; 5 × IC50, 24 h", "result": 3.88, "unit": "%"}
    ]}
  ]
}
